Values quoted from earlier work as cited in patent publication US9867849B2, “Methods of treating or ameliorating skin conditions with a magnetic dipole stabilized solution” (REVEN PHARMACEUTICALS, INC., priority 2010, dated 2018).

What was measured:
[1] = 241 osteoporotic women, 45 mg/day vitamin K2 and 150 mg elemental calcium, after two years
[2] = rats; 100 mg/kg body weight daily
[3] = higher intake of vitamin K2
[4] = rabbits
[5] = more than 500 postmenopausal women; dietary intake
[6] = 121 patients with hepatocellular carcinoma undergoing conventional therapy; 45 mg/day oral
[7] = system: blast cell numbers in bone marrow and/or peripheral blood; details: of those receiving other medication concomitantly; 20-135 mg/day orally or 10-50 mg/day intravenously

In the case of `CC(C)=CCC/C(C)=C/CC/C(C)=C/CC/C(C)=C/CC1=C(C)C(=O)c2ccccc2C1=O` [Vitamin K2], the “lumbar bone mineral density” value [1] is given as “maintain lumbar bone mineral density”, the fracture incidence ([1]; 30% in the control group) is given as 10% and the “increase in calcium in both kidneys and aorta induced by megadose of synthetic vitamin D” value [2] is given as “inhibited”. The “reduction of prostate cancer risk” value [3] was 35%, the “atherosclerotic plaque progression in the aorta and pulmonary arteries” value ([4]; 1-10 mg/kg daily for 10 weeks) was “inhibited” and the “ester cholesterol deposition in the aorta” value ([4]; compared to the control group) was “reduce”. For the same molecule, the “factor X activity in plasma” value ([4]; compared to the control group) was “reduce”, the lipid peroxidation ([4]; compared to the control group) was “reduce” and the total cholesterol levels ([4]; compared to the control group) was “reduce”. For the same molecule, the “coronary calcification (association with intake)” value [5] was “associated with the trend toward decreasing coronary calcification”, the survival [6] was “significant increase in survival” and the “patients in whom blast cell numbers in bone marrow and/or peripheral blood were reduced” value [7] was about 71%.
